Reference: patent US9079866B2, “Flap modulators” (JANSSEN PHARMACEUTICA NV, priority 2013, dated 2015)
Counter-ions that a name gives are not always drawn. Like-named read-outs stand apart in the source and are kept apart here.

Experiments:
[1] = tested on: leukotriene pathway in human whole blood (LTB4 levels); assay: Human whole blood assay (A23187-stimulated LTB4); format: cell-based; settings: Homo sapiens, read-out: LTB4 IC50 1:1
How it was run: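 Compounds are pre-incubated 15 min at 37° Celsius in RPMI-diluted (1:1) heparinised whole blood before a 30 min A23187 stimulus (7 μg/mL). Plasma LTB4 is read by immunoassay kit, with IC50 calculated from a 4-parameter equation.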

human FLAP = human FLAP (Homo sapiens (Human), UniProt P20292); assay: FLAP binding assay (HTRF format)
Chain of human FLAP (P20292 whole entry): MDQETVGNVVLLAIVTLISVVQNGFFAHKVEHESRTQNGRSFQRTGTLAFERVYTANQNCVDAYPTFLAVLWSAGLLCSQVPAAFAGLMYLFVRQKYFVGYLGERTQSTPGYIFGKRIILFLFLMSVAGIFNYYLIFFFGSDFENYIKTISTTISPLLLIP
How it was run: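 Samples were run in duplicate on each of two plates and the plate results averaged. Read-out is the HTRF signal ratio.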

[2] = human whole blood diluted 1:1 in RPMI, A23187-stimulated LTB4
[3] = human FLAP wild type, HTRF format, average of two plates, duplicates
[4] = human whole blood diluted 1:1, A23187-stimulated
[5] = read-out: FLAP Binding wild type HTRF Ki

| Structure (SMILES) | IC50 [1, 2] [nM] | Ki (human FLAP; [3]) [nM] | IC50 [1, 4] [nM] | Ki (human FLAP; wild type FLAP, HTRF format) [nM] | Ki (human FLAP; [5]) [nM] |
| --- | --- | --- | --- | --- | --- |
| CCC(C)(C)NS(=O)(=O)c1ccccc1-c1ccc(-c2cnc(N)cn2)c(F)c1 [Example 12, 4′-(5-Aminopyrazin-2-yl)-N-(1,1-dimethylpropyl)-3′-fluorobiphenyl-2-sulfonamide] | 21 | 2 |  |  |  |
| Nc1cnc(-c2ccc(-c3ccccc3S(=O)(=O)N[C@@H](CO)c3ccccc3)cc2F)cn1 [Example 82, 4′-(5-Aminopyrazin-2-yl)-3′-fluoro-N-[(1R)-2-hydroxy-1-phenylethyl]biphenyl-2-sulfonamide] | 18 | 1 |  |  |  |
| CC(C)(C)NS(=O)(=O)c1ccccc1-c1ccc(-c2csc(N)n2)c(F)c1 [Example 577, 4′-(2-Amino-1,3-thiazol-4-yl)-N-tert-butyl-3′-fluorobiphenyl-2-sulfonamide] |  |  | 91 | 10 |  |
| Nc1cnc(-c2ccc(-c3ccccc3C(=O)N3CCOC(CO)C3)cc2F)cn1 (racemic) [Example 798, [2-[4-(5-Aminopyrazin-2-yl)-3-fluoro-phenyl]phenyl]-[2-(hydroxymethyl)morpholin-4-yl]methanone] |  |  | 220 | 257 |  |
| Nc1cnc(-c2ccc(-c3ccccc3NS(=O)(=O)N3CCOCC3)cc2F)cn1 [Example 183, N-[4′-(5-Aminopyrazin-2-yl)-3′-fluorobiphenyl-2-yl]morpholine-4-sulfonamide] | 130 | 34 |  |  |  |
| CC(C)(C)[C@@H](CO)NS(=O)(=O)c1ccccc1-c1ccc(-c2cnc(N)nc2)c(F)c1 [Example 270, 4′-(2-Aminopyrimidin-5-yl)-3′-fluoro-N-[(1S)-1-(hydroxymethyl)-2,2-dimethylpropyl]biphenyl-2-sulfonamide trifluoroacetic acid salt] | 1060 |  |  |  | 57 |
| Nc1ncc(-c2ccc(-c3ccccc3S(=O)(=O)N[C@@H]3CCCNC3=O)cc2F)cn1 [Example 266, 4′-(2-Aminopyrimidin-5-yl)-3′-fluoro-N-[(3R)-2-oxopiperidin-3-yl]biphenyl-2-sulfonamide trifluoroacetic acid salt] | 464 |  |  |  | 184 |
| Nc1cnc(-c2ccc(-c3ccccc3S(=O)(=O)NCCCCCO)cc2F)cn1 [Example 132, 4′-(5-Aminopyrazin-2-yl)-3′-fluoro-N-(5-hydroxypentyl)biphenyl-2-sulfonamide] | 11 | 2 |  |  |  |
| Cc1cc(-c2ccccc2S(=O)(=O)NC(C)(C)C)ccc1-c1cnc(N)cn1 [Example 569, 4′-(5-Aminopyrazin-2-yl)-N-tert-butyl-3′-methylbiphenyl-2-sulfonamide] |  |  | 335 | 70 |  |
| CC(C)(C)S(=O)(=O)c1ncccc1-c1ccc(-c2cnc(N)cn2)c(F)c1 [Example 812, 5-(4-(2-(tert-Butylsulfonyl)pyridin-3-yl)-2-fluorophenyl)pyrazin-2-amine formic acid salt] |  |  | 12 |  | 8.5 |
| Nc1cnc(-c2ccc(-c3ccccc3S(=O)(=O)N3CCCC(CCO)C3)cc2F)cn1 (racemic) [Example 71, racemic-2-(1-{[4′-(5-Aminopyrazin-2-yl)-3′-fluorobiphenyl-2-yl]sulfonyl}piperidin-3-yl)ethanol] | 23 | 2 |  |  |  |
| CNS(=O)(=O)c1ccccc1-c1ccc(-c2cnc3[nH]ccc3c2)c(F)c1 [Example 426, 3′-Fluoro-N-methyl-4′-(1H-pyrrolo[2,3-b]pyridin-5-yl)biphenyl-2-sulfonamide] |  |  | 73 | 2 |  |
| Nc1cnc(-c2ccc(-c3ccccc3S(=O)(=O)N3CCOC(CO)C3)cc2F)cn1 (racemic) [Example 142, racemic (4-{[4′-(5-Aminopyrazin-2-yl)-3′-fluorobiphenyl-2-yl]sulfonyl}morpholin-2-yl)methanol] | 41 | 15 |  |  |  |
| Nc1ncc(-c2ccc(-c3ccccc3Sc3ncccn3)cc2F)cn1 [Example 332, 5-[3-Fluoro-2′-(pyrimidin-2-ylsulfanyl)biphenyl-4-yl]pyrimidin-2-amine hydrochloride] | 125 | 65 |  |  |  |
| CCNS(=O)(=O)Cc1ccccc1-c1ccc(-c2cnc(N)cn2)c(F)c1 [Example 231, 1-[4′-(5-Aminopyrazin-2-yl)-3′-fluorobiphenyl-2-yl]-N-ethylmethanesulfonamide formate salt] | 564 |  |  |  | 135 |
| Nc1ncc(-c2ccc(-c3cccnc3S(=O)(=O)C3CC3)cc2F)cn1 [Example 828, 5-{4-[2-(Cyclopropylsulfonyl)pyridin-3-yl]-2-fluorophenyl}pyrimidin-2-amine formic acid salt] |  |  | 260 |  | 115 |
| CC(=O)N1CCC(S(=O)(=O)c2ncccc2-c2ccc(-c3cnc(N)cn3)c(F)c2)CC1 [Example 816, 1-((3-(4-(2-Aminopyrazin-5-yl)-3-fluorophenyl)pyridine-2-yl)sulfonyl)piperidin-1-yl)ethanone hydrogen chloride salt] |  |  | 46 | 21.8 |  |

Now from value to molecule, other results behind:

| IC50 [1, 2] [nM] | Ki (human FLAP; [3]) [nM] | IC50 [1, 4] [nM] | Ki (human FLAP; wild type FLAP, HTRF format) [nM] | Structure (SMILES) | Ki (human FLAP; [5]) [nM] |
| --- | --- | --- | --- | --- | --- |
|  |  | 123 | 9 | COc1cnc(Oc2ccccc2-c2ccc(-c3cnc(N)cn3)c(F)c2)nc1 [Example 549, 5-{3-Fluoro-2′-[(5-methoxypyrimidin-2-yl)oxy]biphenyl-4-yl}pyrazin-2-amine] |  |
| 1650 | 173 |  |  | Nc1cnc(-c2ccc(-c3ccccc3SC(F)(F)F)cc2F)cn1 [Example 189, 5-{3-Fluoro-2′-[(trifluoromethyl)sulfanyl]biphenyl-4-yl}pyrazin-2-amine] |  |
| 854 | 300 |  |  | Nc1cnc(-c2ccc(-c3ccccc3CS(=O)(=O)NCCO)cc2F)cn1 [Example 221, 1-[4′-(5-Aminopyrazin-2-yl)-3′-fluorobiphenyl-2-yl]-N-(2-hydroxyethyl)methanesulfonamide formic acid salt] |  |
|  |  | 39 | 2 | Nc1cnc(-c2ccc(-c3ccc(C(F)(F)F)cc3O)cc2F)cn1 [Example 554, 4′-(5-Aminopyrazin-2-yl)-3′-fluoro-4-(trifluoromethyl)biphenyl-2-ol] |  |
|  |  | 137 | 8 | CC(C)Sc1ncccc1-c1ccc(-c2cnc(N)cn2)c(F)c1 [Example 396, 5-(2-Fluoro-4-{2-[(1-methylethyl)sulfanyl]pyridin-3-yl}phenyl)pyrazin-2-amine] |  |
| 12 | 1 |  |  | CC(NS(=O)(=O)c1ccccc1-c1ccc(-c2cnc(N)cn2)c(F)c1)C(F)(F)F (racemic) [Example 8, racemic 4′-(5-Aminopyrazin-2-yl)-3′-fluoro-N-(2,2,2-trifluoro-1-methylethyl)biphenyl-2-sulfonamide] |  |
|  |  | 444 | 54 | CC(C)Oc1ccccc1-c1ccc(-c2cnc(N)cn2)c(F)c1 [Example 487, 5-[3-Fluoro-2′-(1-methylethoxy)biphenyl-4-yl]pyrazin-2-amine] |  |
|  |  | 104 | 35 | Nc1cnc(-c2ccc(-c3ccccc3Oc3ccnc(C(F)(F)F)n3)cc2F)cn1 [Example 547, 5-(3-Fluoro-2′-{[2-(trifluoromethyl)pyrimidin-4-yl]oxy}biphenyl-4-yl)pyrazin-2-amine] |  |
|  |  | 370 | 146 | Nc1cnc(-c2ccccc2-c2ccc(-c3cnc(N)nc3)c(F)c2)cn1 [Example 841, 5-[2′-(5-Aminopyrazin-2-yl)-3-fluorobiphenyl-4-yl]pyrimidin-2-amine] |  |
